Assay results reported in patent US7413747B2, “Transdermal therapeutic system for treating Parkinsonism” (LTS Lohmann Therapie-Systeme AG, priority 1998, dated 2008).

Assays:
[1] = Solubility of the active substance in polyacrylate adhesives; format: physicochemical; conditions: polyacrylate adhesive matrix; ambient temperature
From the text: (§1) The transdermal therapeutic system according to this invention, of the kind mentioned at the beginning and developed in accordance with the above, is essentially characterized by a matrix on the basis of an acrylate-based or silicone-based non-aqueous polymer adhesive system having a solubility for the free D2-agonist base (−)-5,6,7,8-tetrahydro-6-[propyl-[2-(2-thienyl)ethyl]amino]-1-naphthalenol of >5% (w/w), which matrix is substantially free of inorganic silicate particulates. The solubility is determined at ambient temperature.
In systems wherein the active substance is only partially dissolved the concentration of the dissolved active substance is equal to the saturation concentration and thus has the maximum thermodynamic activity under these conditions. In general, it is, above all, the kind and quantity of the free functional groups in the adhesive which are important for the dissolving capacity of the polyacrylate adhesives. […] Such a system must therefore contain the active substance in a concentration of at least 10% (w/w) in order to come sufficiently near to the maximal thermodynamic activity. For the hydrochloride of (−)-5,6,7,8-tetrahydro-6-[propyl-[2-(2-thienyl)ethyl]amino]-1-naphthalenol the solubility in polyacrylates having 5-10% (w/w) is much lower, so that in such systems the active substance is preferably only partially dissolved.

[2] = Permeation studies utilizing Franz diffusion cells and human epidermis; format: in vitro ADME; conditions: skin, due to hydrophilic properties
From the text: The finished plasters were used in permeation studies utilizing Franz diffusion cells and human epidermis. It will be seen that all plasters are capable of systemically providing a sufficient amount of active substance through the skin. […] It will also be seen that the silicone adhesive-based plasters, although having a considerably lower active substance content, deliver approximately the same quantity of active substance via the skin as the systems based on polyacrylate adhesives.

[3] = Solubility (saturation capacity) of the active substance in silicone adhesives; format: physicochemical; conditions: for saturation capacity in silicone adhesives: silicone adhesive without solubility-increasing additive
From the text: as §1
This is sufficient to dissolve 10 mg active substance in a 20 cm^2 large patch having a coat weight of the matrix of 50 g/m^2. Since with transdermal patch systems one must always assume that only about 50% of the active substance employed will be available during the period of application, given a daily dose in the range of 1-10 mg of the active substance a plaster size of between 2 and 40 cm^2 can be expected to be sufficient to achieve therapeutic plasma levels.

solubility in polyacrylate adhesives [1]	passing the barrier of the stratum corneum [2]	saturation capacity in silicone adhesives [3]	solubility in amine-resistant silicone adhesive ([3]; about 1.5-5% (w/w) of polyvinylpyrrolidone in the adhesive)	dissolving capacity for the free base in silicone adhesive matrices ([3]; silicone adhesive admixed with a substance having increased solubility for the active substance (e.g. polyvinylpyrrolidone))	SMILES
5-10 % (w/w)	only poorly	practically insoluble	–	–	CCCN(CCc1cccs1)C1CCc2c(O)cccc2C1.Cl (single isomer, unassigned; (-)) [(−)-5,6,7,8-tetrahydro-6-[propyl-[2-(2-thienyl)ethyl]amino]-1-naphthalenol hydrochloride]
15-35 % (w/w)	–	about 5 % (w/w)	10-15 % (w/w)	up to 40 % (w/w)	CCCN(CCc1cccs1)C1CCc2c(O)cccc2C1 (single isomer, unassigned; (-)) [(−)-5,6,7,8-tetrahydro-6-[propyl-[2-(2-thienyl)ethyl]amino]-1-naphthalenol]
